Test results from patent EP2257297B1, “COMPOUNDS FOR USE IN THE TREATMENT OF ACNE, SEBORRHOEA AND SEBHORROEIC DERMATITIS, OR FOR REDUCING SEBUM SECRETION” (priority 2008, dated 2009).

Molecular target: T1, human MC5R (Homo sapiens, UniProt P33032)
T1 construct: purchased Perkin Elmer RBXMC5M400UA
Experiment: Human MC5R radioligand binding assay ([125I] NDP-MSH displacement, hMC5R membranes)
Details: hMC5R assay as in Example 102; compounds tested as trifluoroacetate or hydrochloride salts, or as free base
How it was run: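 Bound ligand collected by filtration on PEI-soaked GF/A filters and counted. Data fitted to a single-site competition model with fixed Hill coefficient to give EC50.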

T1 sequence (P33032 whole entry): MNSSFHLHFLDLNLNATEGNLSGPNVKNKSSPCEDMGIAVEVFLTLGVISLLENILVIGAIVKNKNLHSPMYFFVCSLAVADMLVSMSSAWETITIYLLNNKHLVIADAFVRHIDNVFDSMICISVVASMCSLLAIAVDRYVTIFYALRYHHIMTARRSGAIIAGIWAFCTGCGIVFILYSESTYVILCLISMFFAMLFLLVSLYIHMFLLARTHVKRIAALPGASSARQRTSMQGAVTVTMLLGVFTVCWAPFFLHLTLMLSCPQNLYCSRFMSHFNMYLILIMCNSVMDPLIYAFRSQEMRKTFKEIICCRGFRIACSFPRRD

| SMILES | IC50 [nM] |
| --- | --- |
| COc1cc(C(=O)NC[C@@H]2CCN(CC(c3ccccc3)c3ccccc3)C(=O)[C@H](CCCNC(=N)N)N2)c(OC)c2ccccc12 [Compound 215, N-(((3S,5S)-1-(2,2-diphenylethyl)-3-(3-guanidinopropyl)-2-oxo-1,4-diazepan-5-yl)methyl)-1,4-dimethoxy-2-naphthamide] | < 1000 |
| N=C(N)NCCC[C@@H]1N[C@H](CNC(=O)c2ccc3cc(N)ccc3c2)CCN(CC(c2ccccc2)c2ccccc2)C1=O [Compound 218, 6-amino-N-(((3S,5S)-1-(2,2-diphenylethyl)-3-(3-guanidinopropyl)-2-oxo-1,4-diazepan-5-yl)methyl)-2-naphthamide] | < 10000 |
| Cc1ccc(C(=O)NC[C@@H]2CCN(CC(c3ccccc3)c3ccccc3)C(=O)[C@H](CCCN)N2)cc1C [Compound 223, N-(((3S,5S)-3-(3-aminopropyl)-1-(2,2-diphenylethyl)-2-oxo-1,4-diazepan-5-yl)methyl)-3,4-dimethylbenzamide] | < 1000 |
| N#Cc1ccc(/C=C/C(=O)NC[C@@H]2CCN(CC(c3ccccc3)c3ccccc3)C(=O)[C@H](CCCN)N2)cc1 [Compound 234, (E)-N-(((3S,5S)-3-(3-aminopropyl)-1-(2,2-diphenylethyl)-2-oxo-1,4-diazepan-5-yl)methyl)-3-(4-cyanophenyl)acrylamide] | < 1000 |
| NCCC[C@@H]1N[C@H](CNC(=O)/C=C/c2ccc3ccccc3c2)CCN(CC(c2ccccc2)c2ccccc2)C1=O [Compound 235, (E)-N-(((3S,5S)-3-(3-aminopropyl)-1-(2,2-diphenylethyl)-2-oxo-1,4-diazepan-5-yl)methyl)-3-(naphthalen-2-yl)acrylamide] | < 1000 |
| NCCC[C@@H]1N[C@H](CNC(=O)C2CCN(c3ccccc3)C2=O)CCN(CC(c2ccccc2)c2ccccc2)C1=O (stereo partly drawn) [Compound 239, N-(((3S,5S)-3-(3-aminopropyl)-1-(2,2-diphenylethyl)-2-oxo-1,4-diazepan-5-yl)methyl)-2-oxo-1-phenylpyrrolidine-3-carboxamide] | < 10000 |
| NCCC[C@@H]1N[C@H](CNC(=O)c2cc(-c3ccco3)on2)CCN(CC(c2ccccc2)c2ccccc2)C1=O [Compound 241, N-(((3S,5S)-3-(3-aminopropyl)-1-(2,2-diphenylethyl)-2-oxo-1,4-diazepan-5-yl)methyl)-5-(furan-2-yl)isoxazole-3-carboxamide] | < 1000 |
| NCCC[C@@H]1N[C@H](CNC(=O)c2csc(-c3ccccc3)n2)CCN(CC(c2ccccc2)c2ccccc2)C1=O [Compound 242, N-(((3S,5S)-3-(3-aminopropyl)-1-(2,2-diphenylethyl)-2-oxo-1,4-diazepan-5-yl)methyl)-2-phenylthiazole-4-carboxamide] | < 1000 |
| Cc1cc(C)n(-c2ccc(C(=O)NC[C@@H]3CCN(CC(c4ccccc4)c4ccccc4)C(=O)[C@H](CCCN)N3)cc2)n1 [Compound 243, N-(((3S,5S)-3-(3-aminopropyl)-1-(2,2-diphenylethyl)-2-oxo-1,4-diazepan-5-yl)methyl)-4-(3,5-dimethyl-1H-pyrazol-1-yl)benzamide] | < 1000 |
| Cc1ccc(/C=C/C(=O)NC[C@@H]2CCN(CC(c3ccccc3)c3ccccc3)C(=O)[C@H](CCCN)N2)s1 [Compound 255, (E)-N-(((3S,5S)-3-(3-aminopropyl)-1-(2,2-diphenylethyl)-2-oxo-1,4-diazepan-5-yl)methyl)-3-(5-methylthiophen-2-yl)acrylamide] | < 1000 |
| NCCC[C@@H]1N[C@H](CNC(=O)c2cc(-c3ccccc3)n[nH]2)CCN(CC(c2ccccc2)c2ccccc2)C1=O [Compound 256, N-(((3S,5S)-3-(3-aminopropyl)-1-(2,2-diphenylethyl)-2-oxo-1,4-diazepan-5-yl)methyl)-3-phenyl-1H-pyrazole-5-carboxamide] | < 1000 |
| CN(C[C@@H]1CCN(CC(c2ccccc2)c2ccccc2)C(=O)[C@H](CCCN)N1)C(=O)/C=C/c1ccc(F)cc1 [Compound 257, (E)-N-(((3S,5S)-3-(3-aminopropyl)-1-(2,2-diphenylethyl)-2-oxo-1,4-diazepan-5-yl)methyl)-3-(4-fluorophenyl)-N-methylacrylamide] | < 10000 |
| CN1[C@H](CNC(=O)/C=C/c2ccc(F)cc2)CCN(CC(c2ccccc2)c2ccccc2)C(=O)[C@@H]1CCCN [Compound 258, (E)-N-(((3S,5S)-3-(3-aminopropyl)-1-(2,2-diphenylethyl)-4-methyl-2-oxo-1,4-diazepan-5-yl)methyl)-3-(4-fluorophenyl)acrylamide] | < 1000 |
| CC1=NN(c2ccc(C(=O)NC[C@@H]3CCN(CC(c4ccccc4)c4ccccc4)C(=O)[C@H](CCCN)N3)cc2)C(=O)C1 [Compound 259, N-(((3S,5S)-3-(3-aminopropyl)-1-(2,2-diphenylethyl)-2-oxo-1,4-diazepan-5-yl)methyl)-4-(3-methyl-5-oxo-4,5-dihydro-1H-pyrazol-1-yl)benzamide] | < 1000 |
| NCCC[C@@H]1N[C@H](CNC(=O)/C=C/c2ccc(Br)cc2)CCN(CC(c2ccccc2)c2ccccc2)C1=O [Compound 260, (E)-N-(((3S,5S)-3-(3-aminopropyl)-1-(2,2-diphenylethyl)-2-oxo-1,4-diazepan-5-yl)methyl)-3-(4-bromophenyl)acrylamide] | < 100 |
| O=C(/C=C/c1ccc(Cl)cc1)NC[C@@H]1CCN(CC(c2ccccc2)c2ccccc2)C(=O)[C@H](CCCN2CCCCC2)N1 [Compound 262, (E)-3-(4-chlorophenyl)-N-(((3S,5S)-1-(2,2-diphenylethyl)-2-oxo-3-(3-(piperidin-1-yl)propyl)-1,4-diazepan-5-yl)methyl)acrylamide] | < 100 |

The remaining lines, values ahead:

| IC50 [nM] | SMILES |
| --- | --- |
| < 10 | N=C(N)NCCC[C@@H]1N[C@H](CNC(=O)/C=C/c2ccc(Br)cc2)CCN(CC(c2ccccc2)c2ccccc2)C1=O [Compound 210, (E)-3-(4-bromophenyl)-N-(((3S,5S)-1-(2,2-diphenylethyl)-3-(3-guanidinopropyl)-2-oxo-1,4-diazepan-5-yl)methyl)acrylamide] |
| < 100 | NCCC[C@@H]1N[C@H](CNC(=O)/C=C/c2ccc(Cl)cc2)CCN(CC(c2ccccc2)c2ccccc2)C1=O [Compound 214, (E)-N-(((3S,5S)-3-(3-aminopropyl)-1-(2,2-diphenylethyl)-2-oxo-1,4-diazepan-5-yl)methyl)-3-(4-chlorophenyl)acrylamide] |
| < 100 | CN(C)C(=N)NCCC[C@@H]1N[C@H](CNC(=O)c2ccc3ccccc3c2)CCN(CC(c2ccccc2)c2ccccc2)C1=O [Compound 216, N-(((3S,5S)-3-(3-(3,3-dimethylguanidino)propyl)-1-(2,2-diphenylethyl)-2-oxo-1,4-diazepan-5-yl)methyl)-2-naphthamide] |
| < 100 | Cc1ccc(/C=C/C(=O)NC[C@@H]2CCN(CC(c3ccccc3)c3ccccc3)C(=O)[C@H](CCCN)N2)cc1 [Compound 219, (E)-N-(((3S,5S)-3-(3-aminopropyl)-1-(2,2-diphenylethyl)-2-oxo-1,4-diazepan-5-yl)methyl)-3-p-tolylacrylamide] |
| < 100 | NCCC[C@@H]1N[C@H](CNC(=O)/C=C/c2ccc(F)cc2)CCN(CC(c2ccccc2)c2ccccc2)C1=O [Compound 220, (E)-N-(((3S,5S)-3-(3-aminopropyl)-1-(2,2-diphenylethyl)-2-oxo-1,4-diazepan-5-yl)methyl)-3-(4-fluorophenyl)acrylamide] |
| < 100 | NCCC[C@@H]1N[C@H](CNC(=O)c2ccc3cc(F)ccc3c2)CCN(CC(c2ccccc2)c2ccccc2)C1=O [Compound 221, N-(((3S,5S)-3-(3-aminopropyl)-1-(2,2-diphenylethyl)-2-oxo-1,4-diazepan-5-yl)methyl)-6-fluoro-2-naphthamide] |
| < 100 | NCCC[C@@H]1N[C@H](CNC(=O)c2ccc(Cl)c(Cl)c2)CCN(CC(c2ccccc2)c2ccccc2)C1=O [Compound 224, N-(((3S,5S)-3-(3-aminopropyl)-1-(2,2-diphenylethyl)-2-oxo-1,4-diazepan-5-yl)methyl)-3,4-dichlorobenzamide] |
| < 100 | O=C(NC[C@@H]1CCN(CC(c2ccccc2)c2ccccc2)C(=O)[C@H](CCCNC2CCCCC2)N1)c1ccc2ccccc2c1 [Compound 226, N-(((3S,5S)-3-(3-(cyclohexylamino)propyl)-1-(2,2-diphenylethyl)-2-oxo-1,4-diazepan-5-yl)methyl)-2-naphthamide] |
| < 10 | O=C(/C=C/c1ccc(F)cc1)NC[C@@H]1CCN(CC(c2ccccc2)c2ccccc2)C(=O)[C@H](CCCNC2CCCCC2)N1 [Compound 231, (E)-N-(((3S,5S)-3-(3-(cyclohexylamino)propyl)-1-(2,2-diphenylethyl)-2-oxo-1,4-diazepan-5-yl)methyl)-3-(4-fluorophenyl)acrylamide] |
| < 100 | NCCC[C@@H]1N[C@H](CNC(=O)/C=C/c2ccc(F)cc2F)CCN(CC(c2ccccc2)c2ccccc2)C1=O [Compound 233, (E)-N-(((3S,5S)-3-(3-aminopropyl)-1-(2,2-diphenylethyl)-2-oxo-1,4-diazepan-5-yl)methyl)-3-(2,4-difluorophenyl)acrylamide] |
| < 100 | NCCC[C@@H]1N[C@H](CNC(=O)c2ccc(-c3ccc(Cl)cc3)o2)CCN(CC(c2ccccc2)c2ccccc2)C1=O [Compound 237, N-(((3S,5S)-3-(3-aminopropyl)-1-(2,2-diphenylethyl)-2-oxo-1,4-diazepan-5-yl)methyl)-5-(4-chlorophenyl)furan-2-carboxamide] |
| < 100 | NCCC[C@@H]1N[C@H](CNC(=O)c2ccc(-n3cccc3)cc2)CCN(CC(c2ccccc2)c2ccccc2)C1=O [Compound 238, N-(((3S,5S)-3-(3-aminopropyl)-1-(2,2-diphenylethyl)-2-oxo-1,4-diazepan-5-yl)methyl)-4-(1H-pyrrol-1-yl)benzamide] |
| < 100 | NCCC[C@@H]1N[C@H](CNC(=O)c2cc(-c3ccc(Cl)cc3)on2)CCN(CC(c2ccccc2)c2ccccc2)C1=O [Compound 240, N-(((3S,5S)-3-(3-aminopropyl)-1-(2,2-diphenylethyl)-2-oxo-1,4-diazepan-5-yl)methyl)-5-(4-chlorophenyl)isoxazole-3-carboxamide] |
